Results: PMC1874649 (Nucleic Acids Research, 2007)

System: cyclin B1
Type: cell-based
Conditions: complexed with Pep-3, 2 µM, HeLa cells

Substance: control HypNA-pPNA sequence harbouring two mutations: sequence derived from Cyc-B1a harbouring two mismatches, TGC CAT CAG GCT TAG AGG (antisense TGCCATCAGGCTTAGAGG; HypNA-pPNA backbone (hydroxyproline/phosphono PNA), pattern not given here)
- effect on cyclin B1 protein levels (control): no effect
